Reference: US8354569B2, “Plant acyltransferases specific for long-chained, multiply unsaturated fatty acids” (University of Bristol, priority 2003, dated 2013)

Experiments:
GPAT [1] = test: GPAT acyl-CoA substrate specificity, sunflower microsomal membranes; assay type: biochemical; conditions: for Percentage incorporation in comparison with the incorporation of oleic acid: 0.2 mM acyl-CoA, 5 mM [14C] G3P, 5 minutes
Description: (§1) All the procedures were carried out at 4° C. The cotyledons of maturing sunflower seeds and linseed were harvested approximately 10 days after anthesis and suspended in 0.1 M sodium phosphate buffer (pH 7.2), comprising 0.33 M sucrose and 0.1% BSA (free from fatty acids). After comminution in a glass homogenizer, the homogenate was centrifuged for 30 minutes at 20 000×g. The supernatant was filtered through one layer of Miracloth and centrifuged for 90 minutes in an ultracentrifuge at 100 000×g. The pelleted microsomal membranes were washed with 0.1 M sodium phosphate buffer (pH 7.2) and resuspended in a small volume of buffer, using a glass homogenizer. The microsomal membrane preparations were either immediately processed or stored at −80° C.
(§2) The specificity of the GPAT was studied to verify whether the enzyme has a preference for certain acyl-CoAs, in particular to determine whether the GPAT from oil seed plants converts LCPUFA-CoAs. Microsomal membranes were incubated with 0.5 mM (Mortierella) or 0.2 mM (sunflower and linseed) of one of the following acyl-CoAs: myristoyl-CoA (14:0-CoA), palmitoyl-CoA (16:0-CoA), palmitoleoyl-CoA (16:1-CoA), stearoyl-CoA (18:0-CoA), oleoyl-CoA (18:1-CoA), linoleoyl-CoA (18:2-CoA), dihomo-gamma-linolenoyl-CoA (20:3-CoA) or arachidonyl-CoA (20:4-CoA) and 5 mM [^14C] G3P. Microsomal membranes (equivalent to 50 μg of protein in the case of sunflower and Mortierella and 150 μg of protein in the case of linseed) were added to the reaction mixture in order to start the reaction. After incubation for 5 minutes, the lipids were extracted by the method of Bligh & Dyer, and the radioactivity incorporated in complex lipids was determined.

LPCAT [2] = test: LPCAT acyl-CoA substrate specificity, linseed microsomal membranes; assay type: biochemical; conditions: for Percentage incorporation in comparison with the incorporation of oleic acid: 20 nmol acyl-CoA, sn-1-palmitolysophosphatidylcholine, DTNB assay
Description: as §1
(§3) LPCAT activity was determined in a continuous spectraphotometric assay in which 5,5-dithiobis-2-nitrobenzoate (DTNB) was used, and the change in absorption at 409 nm and 25° C. was monitored. The assay comprised sn-1-palmitolysophosphatidylcholine (30 nmol) as acyl acceptor, DTNB (50 nmol) and 20 nmol of one of the following acyl-CoAs: myristoyl-CoA (14:0-CoA), palmitoyl-CoA (16:0-CoA), palmitoleoyl-CoA (16:1-CoA), stearoyl-CoA (18:0-CoA), oleoyl-CoA (18:1-CoA), linoleoyl-CoA (18:2-CoA), dihomo-gamma-linolenyl-CoA (20:3-CoA) or arachidonyl-CoA (20:4-CoA) in 1 ml of 0.1 M phosphate buffer, pH 7.2. The reaction was started by addition of microsomal membrane preparation. The amount of microsomal membrane preparation added was 5 μg (Mortierella and sunflower) or 30 μg (linseed).

LPCAT [3] = test: LPCAT acyl-CoA substrate specificity, Mortierella microsomal membranes; assay type: biochemical, Mortierella alpina; conditions: for Percentage incorporation in comparison with the incorporation of oleic acid: Mortierella LPCAT, 20 nmol acyl-CoA, sn-1-palmitolysophosphatidylcholine, DTNB assay
Description: (§4) Mortierella cultures were harvested after 5 days and placed on ice. All further procedures were carried out at 4° C. The mycelium was suspended in 0.1 M sodium phosphate buffer (pH 7.2), comprising 0.33 M sucrose, 0.1% BSA (free from fatty acids), 1000 units of catalase/ml and 1 mM Pefabloc. The following steps were carried out as described under “preparations of microsomal membranes from cotyledons of maturing seeds of sunflower and linseed”.
as §3

GPAT [4] = test: GPAT acyl-CoA substrate specificity, Mortierella microsomal membranes; assay type: biochemical, Mortierella alpina; conditions: for Percentage incorporation in comparison with the incorporation of oleic acid: Mortierella GPAT, 0.5 mM acyl-CoA, 5 mM [14C] G3P, 5 minutes
Description: as §4, §2

LPAAT [5] = test: LPAAT acyl-CoA substrate specificity, Mortierella microsomal membranes; assay type: biochemical, Mortierella alpina; conditions: for Percentage incorporation in comparison with the incorporation of oleic acid: Mortierella LPAAT, 20 nmol acyl-CoA, sn-1-oleoyl-lysophosphatidic acid, DTNB assay
Description: as §4
(§5) The specificity of the LPAAT was studied in order to verify whether the enzyme has a preference for certain acyl-CoAs, in particular to determine whether the LPAAT from oil seed plants converts LCPUFA-CoAs. […] The assay comprised sn-1-oleoyl-lysophosphatidic acid (30 nmol), DTNB (50 nmol) and 20 nmol of one of the following acyl-CoAs: palmitoyl-CoA (16:0-CoA), stearoyl-CoA (18:0-CoA), oleoyl-CoA (18:1-CoA), linoleoyl-CoA (18:2-CoA), dihomo-gamma-linolenyl-CoA (20:3-CoA) or arachidonyl-CoA (20:4-CoA) in 1 ml of 0.1 M phosphate buffer, pH 7.2. […] Microsomal membranes (equivalent to 10 μg of protein in the case of Mortierella and 40 μg of protein in the case of sunflower and linseed) were added to the reaction mixture in order to start the reaction.

LPCAT [6] = test: LPCAT acyl-CoA substrate specificity, sunflower microsomal membranes; assay type: biochemical; conditions: for Percentage incorporation in comparison with the incorporation of oleic acid: 20 nmol acyl-CoA, sn-1-palmitolysophosphatidylcholine, DTNB assay
Description: as §1, §3

LPAAT [7] = test: LPAAT acyl-CoA substrate specificity, linseed microsomal membranes; assay type: biochemical; conditions: for Percentage incorporation in comparison with the incorporation of oleic acid: 20 nmol acyl-CoA, sn-1-oleoyl-lysophosphatidic acid, DTNB assay
Description: as §1, §5

LPAAT [8] = test: LPAAT acyl-CoA substrate specificity, sunflower microsomal membranes; assay type: biochemical; conditions: for Percentage incorporation in comparison with the incorporation of oleic acid: 20 nmol acyl-CoA, sn-1-oleoyl-lysophosphatidic acid, DTNB assay
Description: as §1, §5

GPAT [9] = test: GPAT acyl-CoA substrate specificity, linseed microsomal membranes; assay type: biochemical; conditions: for Percentage incorporation in comparison with the incorporation of oleic acid: 0.2 mM acyl-CoA, 5 mM [14C] G3P, 5 minutes
Description: as §1, §2

| SMILES | Percentage incorporation in comparison with the incorporation of oleic acid (GPAT [1]) [%] | LPCAT activity (in words) (LPCAT [2]) | Percentage incorporation in comparison with the incorporation of oleic acid (LPCAT [2]) [%] | Percentage incorporation in comparison with the incorporation of oleic acid (LPCAT [3]) [%] | Percentage incorporation in comparison with the incorporation of oleic acid (GPAT [4]) [%] | Percentage incorporation in comparison with the incorporation of oleic acid (LPAAT [5]) [%] | Percentage incorporation in comparison with the incorporation of oleic acid (LPCAT [6]) [%] | Percentage incorporation in comparison with the incorporation of oleic acid (LPAAT [7]) [%] | Percentage incorporation in comparison with the incorporation of oleic acid (LPAAT [8]) [%] | Percentage incorporation in comparison with the incorporation of oleic acid (GPAT [9]) [%] | Rate of the incorporation of oleic acid (LPCAT [6]) [nmol/min/mg protein] | Rate of the incorporation of oleic acid (GPAT [1]) [nmol/min/mg protein] | Rate of the incorporation of oleic acid (LPAAT [7]) [nmol/min/mg protein] | Rate of the incorporation of oleic acid (LPAAT [8]) [nmol/min/mg protein] | Rate of the incorporation of oleic acid (GPAT [9]) [nmol/min/mg protein] | Rate of the incorporation of oleic acid (LPCAT [2]) [nmol/min/mg protein] | Rate of the incorporation of oleic acid (LPCAT [3]; Mortierella alpina LPCAT) [nmol/min/mg protein] | Rate of the incorporation of oleic acid (GPAT [4]; Mortierella alpina GPAT) [nmol/min/mg protein] | Rate of the incorporation of oleic acid (LPAAT [5]; Mortierella alpina LPAAT) [nmol/min/mg protein] | Percentage incorporation in comparison with the incorporation of oleic acid (LPCAT [6]; listed as SSA Palmitoyl-CoA) [%] |
| --- | --- | --- | --- | --- | --- | --- | --- | --- | --- | --- | --- | --- | --- | --- | --- | --- | --- | --- | --- | --- |
| CCCCC/C=C\C/C=C\C/C=C\CCCCCCC(=O)SCCNC(=O)CCNC(=O)[C@H](O)C(C)(C)COP(=O)(O)OP(=O)(O)OC[C@H]1O[C@@H](n2cnc3c(N)ncnc32)[C@H](O)[C@@H]1OP(=O)(O)O [20:3-CoA, dihomo-gamma-linolenoyl-CoA] | 55 | no LPCAT activity was detected | 0 | 85 | 80 | 65 |  |  |  |  |  |  |  |  |  |  |  |  |  |  |
| CCCCC/C=C\C/C=C\C/C=C\C/C=C\CCCC(=O)SCCNC(=O)CCNC(=O)[C@H](O)C(C)(C)COP(=O)(O)OP(=O)(O)OC[C@H]1O[C@@H](n2cnc3c(N)ncnc32)[C@H](O)[C@@H]1OP(=O)(O)O [Arachidonoyl-CoA, arachidonyl-CoA] | 23 | no LPCAT activity was detected | 0 | 90 | 75 | 65 | 4 | 19 | 18 | 5 |  |  |  |  |  |  |  |  |  |  |
| CCCCC/C=C\C/C=C\CCCCCCCC(=O)SCCNC(=O)CCNC(=O)[C@H](O)C(C)(C)COP(=O)(O)OP(=O)(O)OC[C@H]1O[C@@H](n2cnc3c(N)ncnc32)[C@H](O)[C@@H]1OP(=O)(O)O [Linoleoyl-CoA, linoleoyl-CoA] | 85 | converted equally efficiently | 100 | 40 | 90 | 90 | 120 | 120 | 250 | 90 |  |  |  |  |  |  |  |  |  |  |
| CCCCCCCCCCCCCC(=O)SCCNC(=O)CCNC(=O)[C@H](O)C(C)(C)COP(=O)(O)OP(=O)(O)OC[C@H]1O[C@@H](n2cnc3c(N)ncnc32)[C@H](O)[C@@H]1OP(=O)(O)O [Myristoyl-CoA, myristoyl-CoA] | 57 |  | 0 | 0 |  | 55 | 1 | 30 | 16 | 100 |  |  |  |  |  |  |  |  |  |  |
| CCCCCCCC/C=C\CCCCCCCC(=O)SCCNC(=O)CCNC(=O)[C@H](O)C(C)(C)COP(=O)(O)OP(=O)(O)OC[C@H]1O[C@@H](n2cnc3c(N)ncnc32)[C@H](O)[C@@H]1OP(=O)(O)O [Oleoyl-CoA, oleoyl-CoA] | 100 | converted equally efficiently | 100 | 100 | 100 | 100 | 100 | 100 | 100 | 100 | 360 | 13 | 25 | 28 | 6 | 9 | 350 | 30 | 51 |  |
| CCCCCC/C=C\CCCCCCCC(=O)SCCNC(=O)CCNC(=O)[C@H](O)C(C)(C)COP(=O)(O)OP(=O)(O)OC[C@H]1O[C@@H](n2cnc3c(N)ncnc32)[C@H](O)[C@@H]1OP(=O)(O)O [Palmitololeoyl-CoA, palmitoleoyl-CoA] |  |  | 180 | 60 |  | 70 | 90 | 140 | 140 |  |  |  |  |  |  |  |  |  |  |  |
| CCCCCCCCCCCCCCCC(=O)SCCNC(=O)CCNC(=O)[C@H](O)C(C)(C)COP(=O)(O)OP(=O)(O)OC[C@H]1O[C@@H](n2cnc3c(N)ncnc32)[C@H](O)[C@@H]1OP(=O)(O)O [Palmitoyl-CoA, palmitoyl-CoA] | 64 |  | 5 | 25 | 66 | 40 |  | 25 | 15 | 90 |  |  |  |  |  |  |  |  |  | 13 |
| CCCCCCCCCCCCCCCCCC(=O)SCCNC(=O)CCNC(=O)[C@H](O)C(C)(C)COP(=O)(O)OP(=O)(O)OC[C@H]1O[C@@H](n2cnc3c(N)ncnc32)[C@H](O)[C@@H]1OP(=O)(O)O [Stearoyl-CoA, stearoyl-CoA] | 40 |  | 15 | 10 | 50 | 36 | 18 | 30 | 14 | 65 |  |  |  |  |  |  |  |  |  |  |
